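Each compound was tested at five concentrations against cells in 96-well plates for 48 hours. Definition used: TGI = concentration required for complete inhibition of growth.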
Experiments:
Experiment in all cases: NCI anticancer screen, dose series, 48 h
A549 NSCLC = test system: A549 NSCLC
BT-549 breast = test system: BT-549 breast
KM12 colon = test system: KM12 colon
MDA-MB-231 breast = test system: MDA-MB-231 breast
NCI-H522 lung = test system: NCI-H522 lung
NCI/ADR-RES ovarian = test system: NCI/ADR-RES ovarian
PC-3 prostate = test system: PC-3 prostate
RPMI-8226 leukemia = test system: RPMI-8226 leukemia
SN12C renal = test system: SN12C renal
TK-10 renal = test system: TK-10 renal
U251 CNS = test system: U251 CNS
UACC-62 melanoma = test system: UACC-62 melanoma
OVCAR-8 ovarian = test system: OVCAR-8 ovarian

SMILES | TGI (A549 NSCLC) [µM] | TGI (BT-549 breast) [µM] | TGI (KM12 colon) [µM] | TGI (MDA-MB-231 breast) [µM] | TGI (NCI-H522 lung) [µM] | TGI (NCI/ADR-RES ovarian) [µM] | TGI (PC-3 prostate) [µM] | TGI (RPMI-8226 leukemia) [µM] | TGI (SN12C renal) [µM] | TGI (TK-10 renal) [µM] | TGI (U251 CNS) [µM] | TGI (UACC-62 melanoma) [µM] | TGI (OVCAR-8 ovarian) [µM]
COC(=O)c1sc2ncc3c(c2c1N)CC(C)CC3 (centres undefined) | > 100 | > 100 | > 100 | > 100 | > 100 | > 100 | > 100 | > 100 | > 100 | > 100 | > 100 | > 100 | 
O=[N+]([O-])c1ccc2nc3c(nc2c1)-c1c2ccccc2cc2cccc-3c12 | > 100 | 17.9 | > 100 | 64.2 | 7.85 | 28.3 | > 66.6 | 98.8 | > 100 | > 100 | > 66 | 39.2 | > 30.6
CC(C)(C)c1ccc2c(c1)OCc1n[nH]c(n1)COc1cc(C(C)(C)C)ccc1OCCOCCO2 | 14.3 | 10.9 | 15.1 | 25.5 | 9.07 | 12.4 | 7.59 | 8.41 | 16.7 | 8.14 | 13.7 | 10.4 | 14.3
O=C(CN=C(CN(c1ccccc1)c1ccccc1)Oc1c(Cl)cc(Cl)cc1Cl)n1cnc2ccccc21 | > 100 | > 100 | > 100 | > 100 | > 100 | > 100 | > 100 | > 100 | > 100 | > 100 | > 100 | > 100 | > 100
O=S1(=O)c2ccccc2NC(=S)N1c1ccccc1 | > 100 | 99.2 | > 100 | > 100 | > 73.3 | > 100 | > 100 | > 100 | > 100 | > 100 | > 100 | > 100 | > 100
CCOC1NC(=O)c2ccccc21 (centres undefined) | > 100 | > 100 | > 100 | > 100 | > 100 | > 100 | > 100 | > 100 | > 100 | > 100 | > 100 | > 100 | > 100
COc1ccc(N2C(=O)C3c4[nH]c5ccccc5c4C4C(C)CCCC4C3C2=O)cc1 (centres undefined) | > 100 | > 33.6 | > 100 | 98.8 | > 56.3 | > 100 | > 100 | > 100 | > 100 | > 100 | > 100 | > 100 | > 100
CCOC(=O)Cc1nn2c(=O)cc(C)nc2s1 | > 100 | > 100 | > 100 | > 100 | > 100 | > 100 | > 100 | > 100 | > 100 | > 100 | > 100 | > 100 | > 100
O=C(NCCCNCCCCNCCCNC(=O)C(F)(F)F)C(F)(F)F | > 100 | > 100 | > 100 | > 100 | > 100 | > 100 | > 100 | > 100 | > 100 | > 100 | > 100 | > 100 | > 100
COc1ccc(CCCCl)c(C2=NCCc3ccccc32)c1 | > 100 | > 100 | > 100 | > 100 | > 100 | > 100 | > 100 | 21.7 | > 100 | > 100 | > 100 | > 100 | > 100
O=C(/C=C1\C[C@H]2C=Nc3ccccc3C(=O)N2C1)NCCCCCNC(=O)/C=C1\C[C@H]2C=Nc3ccccc3C(=O)N2C1 | 54.6 | 26 | 41 | 30.4 | 2.51 | 55.9 | 27.1 | > 72.7 | 10.6 | 10.5 | 9.05 | 28.8 | 7.31
CC(O)(C(=O)N(O)c1ccc(Cl)cc1)c1ccc(Cl)cc1 (centres undefined) | > 100 | 61.5 | > 100 | 56.7 | 46.1 | 86.6 | 73 | 37.3 | > 100 | > 100 | 64.4 | > 100 | > 100
FC(F)=C(c1ccc(-c2ccc(Cl)cc2)cc1)C(F)(F)F | 37.4 | 39.3 | 36.7 | 46.3 | 36.6 | 63.8 | 32.5 | 51.8 | 45.4 | 29.4 | 31.4 | 38.6 | 57.9
COC(=O)c1cc(C(=O)OC)cc(-c2ccc3c(c2)-c2nc4c(c(-c5ccc(OC)cc5)c2CC3)CCc2ccc(-c3cc(C(=O)OC)cc(C(=O)OC)c3)cc2-4)c1 | > 100 | > 100 | > 100 | > 100 | > 100 | > 100 | > 100 | > 100 | > 100 | > 100 | > 100 | > 100 | 
COC(=O)C1=C(C)N2[C@H](C(=O)O)CS[C@@]2(C)[C@H](C(=O)OC)[C@H]1c1cccc([N+](=O)[O-])c1 | > 100 | > 100 | > 100 | > 100 | > 100 | > 100 | > 100 | > 100 | > 100 | > 100 | > 100 | > 100 | > 100
COC(=O)C(CCSC)NC(=O)CSc1nnc(COc2ccc(Cl)cc2)n1-c1ccccc1 (centres undefined) | > 70.8 | 37.4 | 34.4 | 31.3 | 18.1 | 39.2 | 38.4 | 34.5 | 33.1 | 33.3 | 30.9 | 32.7 | 36.3
CC1(C)[C@@H]2C[C@H]1c1cnc(-c3ccccn3)cc1[C@H]2C(O)[C@@H]1c2cc(-c3ccccn3)ncc2[C@H]2C[C@@H]1C2(C)C (some centres undefined) | 18.3 | 3.8 | 24.7 | 3.89 | 3.06 | 1.41 | 11 | 1.93 | 1.89 | > 100 | 7.45 | 7.66 | 3.1

Source: PubChem BioAssay (NCI)
